The text below walks through data of US20170049782A1 (SK CHEMICALS CO., LTD., priority 2014, published 2017).

Data set [1] is described as follows: Solubility / dissolved fraction of active ingredient (I) in water (background). In kind it is physicochemical. From the text: At single administration and repetitive administration, there is a difference in blood concentration depending on whether taking food or not, and food intake is blamed for causing the difference (Xia et al., British Journal of Clinical Pharmacology, 2009, 68:1, p 77-88). This is a reason for decrease of drug efficacy to patients taking food irregularly, and a negative cause, which may make patients feel uncomfortable for taking drug. […] Thus, its bioavailability reach to 100% when it is administered with food because residual insoluble drugs are absorbed by oil content present in the food and a surfactant such as bile acid secreted in the body (Samama et al. Thrombosis Journal 2013, 11:11, p 1-7).

For data set [2] the following is noted: cited from earlier work.

Read-outs that look alike come from different tables or passages of the source. Bounds are passed on as bounds.

The bioavailability is dose-corrected exposure relative to a reference, in per cent. As for `O=C(NC[C@H]1CN(c2ccc(N3CCOCC3=O)cc2)C(=O)O1)c1ccc(Cl)s1` [active ingredient (I)], the figures for the “drug dissolved in dissolution solution” value in data set [1] (10 mg in 900 ml) and in data set [1] (20 mg in 900 ml) were at least 90% and 50%, respectively. Besides, the bioavailability is recorded as 100% in data set [2] (10 mg, regardless of a meal); “about 66%” in data set [2] (20 mg, administered before a meal / under fasted condition); 100% in data set [2] (20 mg, administered with food).
